Measured values as given in US9522886B2, “Pyridine derivatives” (Hoffmann-La Roche Inc., priority 2012, dated 2016).
Structures can show the parent of a compound that is named as a salt.

Columns and labels:
[1] = target: human CB2 receptors (Homo sapiens (Human), UniProt P34972); assay: cAMP assay, CHO cells expressing human CB2 receptors; assay type: cell-based; conditions: functional cAMP assay, CHO cells expressing human CB2; read-out: human CB2 EC50
Description: (§1) CHO cells expressing human CB1 or CB2 receptors are seeded 17-24 hours prior to the experiment 50.000 cells per well in a black 96 well plate with flat clear bottom (Corning Costar #3904) in DMEM (Invitrogen No. 31331), 1×HT supplement, with 10% fetal calf serum and incubated at 5% CO2 and 37° C. in a humidified incubator. The growth medium was exchanged with Krebs Ringer Bicarbonate buffer with 1 mM IBMX and incubated at 30° C. for 30 min. Compounds were added to a final assay volume of 100 μl and incubated for 30 min at 30° C. Using the cAMP-Nano-TRF detection kit the assay (Roche Diagnostics) was stopped by the addition of 50 μl lysis reagent (Tris, NaCl, 1.5% Triton X100, 2.5% NP40, 10% NaN3) and 50 μl detection solutions (20 μM mAb Alexa700-cAMP 1:1, and 48 μM Ruthenium-2-AHA-cAMP) and shaken for 2 h at room temperature. The time-resolved energy transfer is measured by a TRF reader (Evotec Technologies GmbH), equipped with a ND:YAG laser as excitation source. The plate is measured twice with the excitation at 355 nm and at the emission with a delay of 100 ns and a gate of 100 ns, total exposure time 10 s at 730 (bandwidth 30 nm) or 645 nm (bandwidth 75 nm), respectively.
(§2) EC50 values were determined using Activity Base analysis (ID Business Solution, Limited).

[2] = target: human CB1 receptors (Homo sapiens (Human), UniProt P21554); assay: cAMP assay, CHO cells expressing human CB1 receptors; assay type: cell-based; conditions: functional cAMP assay, CHO cells expressing human CB1; read-out: human CB1 EC50
Description: as §1, §2

Chain of human CB1 receptors (P21554 whole entry): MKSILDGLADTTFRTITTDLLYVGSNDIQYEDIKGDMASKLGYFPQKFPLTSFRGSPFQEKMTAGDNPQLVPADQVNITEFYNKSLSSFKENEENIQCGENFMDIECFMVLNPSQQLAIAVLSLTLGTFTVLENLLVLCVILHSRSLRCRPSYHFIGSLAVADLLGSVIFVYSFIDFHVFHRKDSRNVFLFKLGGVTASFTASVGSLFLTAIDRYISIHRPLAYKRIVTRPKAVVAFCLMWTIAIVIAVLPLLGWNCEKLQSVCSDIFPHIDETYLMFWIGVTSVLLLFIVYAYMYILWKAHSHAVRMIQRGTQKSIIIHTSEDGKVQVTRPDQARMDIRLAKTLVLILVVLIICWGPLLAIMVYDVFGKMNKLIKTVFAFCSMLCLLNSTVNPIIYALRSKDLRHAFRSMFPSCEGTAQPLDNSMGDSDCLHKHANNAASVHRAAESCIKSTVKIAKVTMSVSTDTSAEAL
Chain of human CB2 receptors (P34972 whole entry): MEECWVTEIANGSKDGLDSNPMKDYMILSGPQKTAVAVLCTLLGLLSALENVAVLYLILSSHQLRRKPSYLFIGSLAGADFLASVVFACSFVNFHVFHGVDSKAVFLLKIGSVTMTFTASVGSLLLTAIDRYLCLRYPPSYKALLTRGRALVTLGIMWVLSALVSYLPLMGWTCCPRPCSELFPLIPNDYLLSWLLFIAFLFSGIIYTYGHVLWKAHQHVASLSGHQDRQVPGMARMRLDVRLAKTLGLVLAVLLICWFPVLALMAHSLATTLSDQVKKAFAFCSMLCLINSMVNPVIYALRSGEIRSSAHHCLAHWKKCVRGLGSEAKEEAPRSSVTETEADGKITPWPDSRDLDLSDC

NC(=O)CC1(NC(=O)c2ccc(OCC3CC3)c(Cl)n2)COC1 [Example 47, 6-Chloro-5-cyclopropylmethoxy-pyridine-2-carboxylic acid (3-carbamoylmethyl-oxetan-3-yl)-amide]
EC50 [1]: 0.793 µM
EC50 [2]: > 10 µM

CC(C)(CC(N)=O)NC(=O)c1ccc(N2CC(F)(F)C2)c(OCC2CC2)n1 [Example 48, 6-Cyclopropylmethoxy-5-(3,3-difluoro-azetidin-1-yl)-pyridine-2-carboxylic acid (2-carbamoyl-1,1-dimethyl-ethyl)-amide]
EC50 [1]: 0.0092 µM
EC50 [2]: > 10 µM

NC(=O)CC1(NC(=O)c2ccc(C3CC3)c(OCC(F)(F)C(F)(F)F)n2)COC1 [Example 49, 5-Cyclopropyl-6-(2,2,3,3,3-pentafluoro-propoxy)-pyridine-2-carboxylic acid (3-carbamoylmethyl-oxetan-3-yl)-amide]
EC50 [1]: 0.0127 µM
EC50 [2]: > 10 µM

COC(=O)CC1(NC(=O)c2ccc(N3CC(F)(F)C3)c(OCC3CC3)n2)CNC(=O)C1 (stereo not drawn) [Example 50, (3-{[6-Cyclopropylmethoxy-5-(3,3-difluoro-azetidin-1-yl)-pyridine-2-carbonyl]-amino}-5-oxo-pyrrolidin-3-yl)-acetic acid methyl ester]
EC50 [1]: 0.423 µM
EC50 [2]: > 10 µM

CCOC(=O)CC1(NC(=O)c2ccc(N3CC(F)(F)C3)c(OCC3CC3)n2)CS(=O)(=O)C1 [Example 51, (3-{[6-Cyclopropylmethoxy-5-(3,3-difluoro-azetidin-1-yl)-pyridine-2-carbonyl]-amino}-1,1-dioxo-1λ6-thietan-3-yl)-acetic acid ethyl ester]
EC50 [1]: 0.057 µM
EC50 [2]: > 10 µM

COC(=O)CC1(NC(=O)c2ccc(N3CC(F)(F)C3)c(OCC3CC3)n2)CCOCC1 [Example 52, (4-{[6-Cyclopropylmethoxy-5-(3,3-difluoro-azetidin-1-yl)-pyridine-2-carbonyl]-amino}-tetrahydro-pyran-4-yl)-acetic acid methyl ester]
EC50 [1]: 0.0749 µM
EC50 [2]: > 10 µM

NC(=O)CC1(NC(=O)c2ccc(N3CC(F)(F)C3)c(OCC3CC3)n2)CNC(=O)C1 (stereo not drawn) [Example 54, 6-Cyclopropylmethoxy-5-(3,3-difluoro-azetidin-1-yl)-pyridine-2-carboxylic acid (3-carbamoylmethyl-5-oxo-pyrrolidin-3-yl)-amide]
EC50 [1]: 0.055 µM
EC50 [2]: > 10 µM

NC(=O)CC(NC(=O)c1ccc(N2CC(F)(F)C2)c(OCC2CC2)n1)C(F)(F)F (stereo not drawn) [Example 55, 6-Cyclopropylmethoxy-5-(3,3-difluoro-azetidin-1-yl)-pyridine-2-carboxylic acid (1-carbamoylmethyl-2,2,2-trifluoro-ethyl)-amide]
EC50 [1]: 0.003 µM
EC50 [2]: > 10 µM

O=C(O)CC1(NC(=O)c2ccc(N3CC(F)(F)C3)c(OCC3CC3)n2)CS(=O)(=O)C1 [Example 56, (3-{[6-Cyclopropylmethoxy-5-(3,3-difluoro-azetidin-1-yl)-pyridine-2-carbonyl]-amino}-1,1-dioxo-1λ6-thietan-3-yl)-acetic acid]
EC50 [1]: 0.003 µM
EC50 [2]: > 10 µM

O=C(O)CC1(NC(=O)c2ccc(N3CC(F)(F)C3)c(OCC3CC3)n2)CCOCC1 [Example 57, (4-{[6-Cyclopropylmethoxy-5-(3,3-difluoro-azetidin-1-yl)-pyridine-2-carbonyl]-amino}-tetrahydro-pyran-4-yl)-acetic acid]
EC50 [1]: 0.003 µM
EC50 [2]: > 10 µM

NC(=O)CC1(NC(=O)c2ccc(N3CC(F)(F)C3)c(OCC3CC3)n2)CCOCC1 [Example 60, 6-Cyclopropylmethoxy-5-(3,3-difluoro-azetidin-1-yl)-pyridine-2-carboxylic acid (4-carbamoylmethyl-tetrahydro-pyran-4-yl)-amide]
EC50 [1]: 0.0026 µM
EC50 [2]: > 10 µM

NC(=O)CC1(NC(=O)c2ccc(N3CC(F)(F)C3)c(OCC3CC3)n2)CS(=O)(=O)C1 [Example 61, 6-Cyclopropylmethoxy-5-(3,3-difluoro-azetidin-1-yl)-pyridine-2-carboxylic acid (3-carbamoylmethyl-1,1-dioxo-1λ6-thietan-3-yl)-amide]
EC50 [1]: 0.001 µM
EC50 [2]: 7.75 µM

NC(=O)CC1(NC(=O)c2ccc(N3CC(F)(F)C3)c(OCC3CC3)n2)CCSCC1 [Example 62, 6-Cyclopropylmethoxy-5-(3,3-difluoro-azetidin-1-yl)-pyridine-2-carboxylic acid (4-carbamoylmethyl-tetrahydro-thiopyran-4-yl)-amide]
EC50 [1]: 0.0025 µM
EC50 [2]: > 10 µM

NC(=O)CC1(NC(=O)c2ccc(N3CC(F)(F)C3)c(OCC3CC3)n2)CCS(=O)(=O)CC1 [Example 63, N-[4-(2-Amino-2-oxoethyl)-1,1-dioxothian-4-yl]-6-(cyclopropylmethoxy)-5-(3,3-difluoroazetidin-1-yl)pyridine-2-carboxamide]
EC50 [1]: 0.0555 µM
EC50 [2]: > 10 µM

NC(=O)CC(NC(=O)c1ccc(C2CC2)c(OCC2CC2)n1)C1CCOC1 (stereo not drawn) [Example 64, N-[3-Amino-3-oxo-1-(oxolan-3-yl)propyl]-5-cyclopropyl-6-(cyclopropylmethoxy)pyridine-2-carboxamide]
EC50 [1]: 0.0052 µM
EC50 [2]: > 10 µM

NC(=O)CC1(NC(=O)c2ccc(N3CC(F)(F)C3)c(OCC3CC3)n2)CNC1 [Example 65, N-[3-(2-Amino-2-oxoethyl)azetidin-3-yl]-6-(cyclopropylmethoxy)-5-(3,3-difluoroazetidin-1-yl)pyridine-2-carboxamide]
EC50 [1]: 0.443 µM
EC50 [2]: > 10 µM

NC(=O)CC1(NC(=O)c2ccc(C3CC3)c(Cc3ccc(F)cc3)n2)CCNCC1 [Example 66, N-[4-(2-Amino-2-oxoethyl)piperidin-4-yl]-5-cyclopropyl-6-[(4-fluorophenyl)methyl]pyridine-2-carboxamide; hydrochloride]
EC50 [1]: 0.0013 µM
EC50 [2]: > 10 µM

NC(=O)CC(NC(=O)c1ccc(N2CC(F)(F)C2)c(OCC2CC2)n1)C1CCOC1 (stereo not drawn) [Example 67, N-[3-Amino-3-oxo-1-(oxolan-3-yl)propyl]-6-(cyclopropylmethoxy)-5-(3,3-difluoroazetidin-1-yl)pyridine-2-carboxamide]
EC50 [1]: 0.0083 µM
EC50 [2]: > 10 µM

COC(=O)CC1(NC(=O)c2ccc(N3CC(F)(F)C3)c(OCC3CC3)n2)CCC1 [Example 68, Methyl 2-[1-[[6-(cyclopropylmethoxy)-5-(3,3-difluoroazetidin-1-yl)pyridine-2-carbonyl]amino]cyclobutyl]acetate]
EC50 [1]: 0.0011 µM
EC50 [2]: > 10 µM

O=C(O)CC1(NC(=O)c2ccc(N3CC(F)(F)C3)c(OCC3CC3)n2)CCC1 [Example 69, 2-[1-[[6-(Cyclopropylmethoxy)-5-(3,3-difluoroazetidin-1-yl)pyridine-2-carbonyl]amino]cyclobutyl]acetic acid]
EC50 [1]: 0.302 µM
EC50 [2]: > 10 µM

NC(=O)CC1(NC(=O)c2ccc(N3CC(F)(F)C3)c(OCC3CC3)n2)CCC1 [Example 70, N-[1-(2-Amino-2-oxoethyl)cyclobutyl]-6-(cyclopropylmethoxy)-5-(3,3-difluoroazetidin-1-yl)pyridine-2-carboxamide]
EC50 [1]: 0.0006 µM
EC50 [2]: > 10 µM

CCOC(=O)C1(CNC(=O)c2ccc(N3CC(F)(F)C3)c(OCC3CC3)n2)CC1 [Example 71, Ethyl 1-[[[6-(cyclopropylmethoxy)-5-(3,3-difluoroazetidin-1-yl)pyridine-2-carbonyl]amino]methyl]cyclopropane-1-carboxylate]
EC50 [1]: 0.0606 µM
EC50 [2]: > 10 µM

CC(=O)N1CCC(CC(N)=O)(NC(=O)c2ccc(C3CC3)c(Cc3ccc(F)cc3)n2)CC1 [Example 72, N-[1-Acetyl-4-(2-amino-2-oxoethyl)piperidin-4-yl]-5-cyclopropyl-6-[(4-fluorophenyl)methyl]pyridine-2-carboxamide]
EC50 [1]: 0.005 µM
EC50 [2]: > 10 µM

CC(=O)N1CC(CC(N)=O)(NC(=O)c2ccc(N3CC(F)(F)C3)c(OCC3CC3)n2)C1 [Example 73, N-[1-Acetyl-3-(2-amino-2-oxoethyl)azetidin-3-yl]-6-(cyclopropylmethoxy)-5-(3,3-difluoroazetidin-1-yl)pyridine-2-carboxamide]
EC50 [1]: 0.12 µM
EC50 [2]: > 10 µM

NC(=O)CC1(NC(=O)c2ccc(C3CC3)c(Cc3ccc(F)cc3)n2)CN(C(=O)OCc2ccccc2)C1 [Example 74, Benzyl 3-(2-amino-2-oxoethyl)-3-[[5-cyclopropyl-6-[(4-fluorophenyl)methyl]pyridine-2-carbonyl]amino]azetidine-1-carboxylate]
EC50 [1]: 0.039 µM
EC50 [2]: > 10 µM

CC(C)CSc1nc(C(=O)NC2(CC(N)=O)CS(=O)(=O)C2)ccc1C1CC1 [Example 75, N-[3-(2-Amino-2-oxoethyl)-1,1-dioxothietan-3-yl]-5-cyclopropyl-6-(2-methylpropylsulfanyl)pyridine-2-carboxamide]
EC50 [1]: 0.0158 µM
EC50 [2]: > 10 µM

NC(=O)CC1(NC(=O)c2ccc(C3CC3)c(OCC3CC3)n2)CS(=O)(=O)C1 [Example 77, N-[3-(2-Amino-2-oxoethyl)-1,1-dioxothietan-3-yl]-5-cyclopropyl-6-(cyclopropylmethoxy)pyridine-2-carboxamide]
EC50 [1]: 0.0007 µM
EC50 [2]: > 10 µM
